Measurements: US20240365781A1, “SYNERGISTICALLY EFFECTIVE HERBICIDE COMPOSITION COMPRISING PELARGONIC ACID AND FLAZASULFURON” (Belchim Crop Protection NV, priority 2017, published 2024)

Columns and labels:
Assay type in all cases: in vivo
Stellaria media = assay: post-emergence field trial under rows of vines, 150-200 L water/ha (Examples 6-9); conditions: flazasulfuron 40 g/ha
Excerpt: (§1) The expected activity of a given combination of two or three herbicides can be calculated as follows according to a calculation method by Colby (cf. COLBY, S. R.: “Calculating synergistic and antagonistic responses of herbicide combinations”, • Weeds 15, pages 20-22, 1967): • If X=% damage by herbicide (A) at an application rate of m g/ha, • Y=% damage by herbicide (B) at an application rate of n g/ha, • E=the expected damage by herbicides (A) and (B) at application rates of m and n […] and, • then for a combination:
(§2) Individual compositions comprising pelargonic acid or flazasulfuron are compared with a herbicide composition according to the invention comprising pelargonic acid and flazasulfuron.
(§3) Herbicidal activity was determined by performing a post-emergence test. […] The corresponding mixture was in the form of a spray solution. Besides, spray solutions of individual compositions comprising pelargonic acid or flazasulfuron were used.
(§4) The spray solution was applied on plants of unwanted vegetation present on fields where perennial crops were grown.
(§5) After 5 to 88 days after application of the spray solution, the degree of damage to the unwanted vegetation is rated in % of plants of unwanted vegetation that were killed. Tests were performed on test fields (field trials).

Epilobium tetragonum = assay: as above; conditions: flazasulfuron 40 g/ha
Excerpt: as §1, §2, §3, §4, §5

Convolvulus arvensis = assay: as above; conditions: flazasulfuron 40 g/ha
Excerpt: as §1, §2, §3, §4, §5

Senecio vulgaris = assay: as above; conditions: flazasulfuron 40 g/ha
Excerpt: as §1, §2, §3, §4, §5

[1] = tested on: Digitaria sanguinalis and Setaria pumila; assay: as above; conditions: flazasulfuron 40 g/ha
Excerpt: as §1, §2, §3, §4, §5

Plantago major = assay: post-emergence test, field trial (Examples 1-5); conditions: FT
Excerpt: as §1, §2
(§6) Herbicidal activity was determined by performing a post-emergence test. […] The corresponding mixture was in the form of a spray liquor. Besides, spray liquors of individual compositions comprising pelargonic acid or flazasulfuron were used.
(§7) Tests were performed on test fields (field trials) or in pots (pot trials).

Chenopodium album = assay: post-emergence test, field trial (Examples 1-5); conditions: FT
Excerpt: as §1, §2, §6, §7

Anagallis arvensis = assay: post-emergence test, field trial (Examples 1-5); conditions: 3 d, FT; pelargonic acid 5440 g/ha, flazasulfuron 50 g/ha; 8 L/ha
Excerpt: as §1, §2, §6, §7

Veronica persica = assay: post-emergence test, field trial (Examples 1-5); conditions: FT, pelargonic acid 5440 g/ha, flazasulfuron 50 g/ha, 8 L/ha
Excerpt: as §1, §2, §6, §7

Erodium cicuta = assay: post-emergence test, field trial (Examples 1-5); conditions: 28 d, FT; pelargonic acid 5440 g/ha, flazasulfuron 50 g/ha; 8 L/ha
Excerpt: as §1, §2, §6, §7

Convolvulus arvensis L. = assay: post-emergence test, field trial (Examples 1-5); conditions: 3 d, FT; pelargonic acid 5440 g/ha, flazasulfuron 50 g/ha; 8 L/ha
Excerpt: as §1, §2, §6, §7

[2] = 7 d, pelargonic acid 10880 g/ha
[3] = 14 d, pelargonic acid 5440 g/ha
[4] = 14 d, pelargonic acid 6800 g/ha
[5] = 14 d, pelargonic acid 8160 g/ha
[6] = 14 d, pelargonic acid 10880 g/ha
[7] = 28 d, pelargonic acid 5440 g/ha
[8] = 28 d, pelargonic acid 6800 g/ha
[9] = 28 d, pelargonic acid 8160 g/ha
[10] = 28 d, pelargonic acid 10880 g/ha
[11] = 65 d, pelargonic acid 5440 g/ha
[12] = 65 d, pelargonic acid 8160 g/ha
[13] = 65 d, pelargonic acid 10880 g/ha
[14] = 3 d, pelargonic acid 10880 g/ha, flazasulfuron 25 g/ha, 16 L/ha
[15] = 3 d, pelargonic acid 10880 g/ha, flazasulfuron 50 g/ha, 16 L/ha
[16] = 3 d, pelargonic acid 21760 g/ha, flazasulfuron 50 g/ha, 32 L/ha
[17] = 7 d, pelargonic acid 10880 g/ha, flazasulfuron 25 g/ha, 16 L/ha
[18] = 7 d, pelargonic acid 10880 g/ha, flazasulfuron 50 g/ha, 16 L/ha
[19] = 7 d, pelargonic acid 21760 g/ha, flazasulfuron 25 g/ha, 32 L/ha
[20] = 7 d, pelargonic acid 21760 g/ha, flazasulfuron 50 g/ha, 32 L/ha
[21] = 13 d, pelargonic acid 10880 g/ha, flazasulfuron 25 g/ha, 16 L/ha
[22] = 13 d, pelargonic acid 10880 g/ha, flazasulfuron 50 g/ha, 16 L/ha
[23] = 13 d, pelargonic acid 21760 g/ha, flazasulfuron 25 g/ha, 32 L/ha
[24] = 13 d, pelargonic acid 21760 g/ha, flazasulfuron 50 g/ha, 32 L/ha
[25] = 23 d, pelargonic acid 21760 g/ha, flazasulfuron 25 g/ha, 32 L/ha
[26] = 23 d, pelargonic acid 21760 g/ha, flazasulfuron 50 g/ha, 32 L/ha
[27] = 30 d, pelargonic acid 10880 g/ha, flazasulfuron 25 g/ha, 16 L/ha
[28] = 30 d, pelargonic acid 10880 g/ha, flazasulfuron 50 g/ha, 16 L/ha
[29] = 30 d, pelargonic acid 21760 g/ha, flazasulfuron 25 g/ha, 32 L/ha
[30] = 30 d, pelargonic acid 21760 g/ha, flazasulfuron 50 g/ha, 32 L/ha
[31] = 38 d, pelargonic acid 10880 g/ha, flazasulfuron 25 g/ha, 16 L/ha
[32] = 38 d, pelargonic acid 10880 g/ha, flazasulfuron 50 g/ha, 16 L/ha
[33] = 38 d, pelargonic acid 21760 g/ha, flazasulfuron 25 g/ha, 32 L/ha
[34] = 38 d, pelargonic acid 21760 g/ha, flazasulfuron 50 g/ha, 32 L/ha

SMILES: CCCCCCCCC(=O)O [Pelargonic acid, nonanoic acid]
- herbicidal effect (Stellaria media; 7 d, pelargonic acid 8160 g/ha): 49%
- herbicidal effect (Stellaria media; [2]): 54%
- herbicidal effect (Stellaria media; [3]): 69%
- herbicidal effect (Stellaria media; [4]): 75%
- herbicidal effect (Stellaria media; [5]): 66%
- herbicidal effect (Stellaria media; [6]): 80%
- herbicidal effect (Stellaria media; [7]): 80%
- herbicidal effect (Stellaria media; [8]): 84%
- herbicidal effect (Stellaria media; [9]): 86%
- herbicidal effect (Stellaria media; [10]): 93%
- herbicidal effect (Epilobium tetragonum; 7 d, pelargonic acid 5440 g/ha): 49%
- herbicidal effect (Epilobium tetragonum; 7 d, pelargonic acid 8160 g/ha): 56%
- herbicidal effect (Epilobium tetragonum; [2]): 73%
- herbicidal effect (Epilobium tetragonum; [4]): 0%
- herbicidal effect (Epilobium tetragonum; [5]): 8%
- herbicidal effect (Epilobium tetragonum; [6]): 13%
- herbicidal effect (Epilobium tetragonum; 27 d, pelargonic acid 6800 g/ha): 0%
- herbicidal effect (Epilobium tetragonum; 27 d, pelargonic acid 8160 g/ha): 0%
- herbicidal effect (Epilobium tetragonum; 27 d, pelargonic acid 10880 g/ha): 0%
- herbicidal effect (Epilobium tetragonum; 56 d, pelargonic acid 6800 g/ha): 0%
- herbicidal effect (Epilobium tetragonum; 56 d, pelargonic acid 8160 g/ha): 0%
- herbicidal effect (Epilobium tetragonum; 56 d, pelargonic acid 10880 g/ha): 0%
- herbicidal effect (Convolvulus arvensis; 7 d, pelargonic acid 5440 g/ha): 13%
- herbicidal effect (Convolvulus arvensis; 7 d, pelargonic acid 6800 g/ha): 0%
- herbicidal effect (Convolvulus arvensis; 7 d, pelargonic acid 8160 g/ha): 19%
- herbicidal effect (Convolvulus arvensis; [3]): 13%
- herbicidal effect (Convolvulus arvensis; [4]): 0%
- herbicidal effect (Convolvulus arvensis; [5]): 23%
- herbicidal effect (Convolvulus arvensis; [6]): 43%
- herbicidal effect (Convolvulus arvensis; [8]): 0%
- herbicidal effect (Convolvulus arvensis; [9]): 0%
- herbicidal effect (Convolvulus arvensis; [10]): 38%
- herbicidal effect (Convolvulus arvensis; [11]): 0%
- herbicidal effect (Convolvulus arvensis; 65 d, pelargonic acid 6800 g/ha): 0%
- herbicidal effect (Convolvulus arvensis; [12]): 0%
- herbicidal effect (Convolvulus arvensis; [13]): 0%
- herbicidal effect (Senecio vulgaris; 7 d, pelargonic acid 5440 g/ha): 83%
- herbicidal effect (Senecio vulgaris; 7 d, pelargonic acid 6800 g/ha): 89%
- herbicidal effect (Senecio vulgaris; [3]): 80%
- herbicidal effect (Senecio vulgaris; [4]): 89%
- herbicidal effect (Senecio vulgaris; [5]): 98%
- herbicidal effect (Senecio vulgaris; 31 d, pelargonic acid 5440 g/ha): 60%
- herbicidal effect (Senecio vulgaris; 31 d, pelargonic acid 6800 g/ha): 60%
- herbicidal effect (Senecio vulgaris; 31 d, pelargonic acid 8160 g/ha): 91%
- herbicidal effect (Senecio vulgaris; 31 d, pelargonic acid 10880 g/ha): 90%
- herbicidal effect (Senecio vulgaris; 58 d, pelargonic acid 5440 g/ha): 0%
- herbicidal effect (Senecio vulgaris; 58 d, pelargonic acid 8160 g/ha): 10%
- herbicidal effect (Senecio vulgaris; 58 d, pelargonic acid 10880 g/ha): 15%
- herbicidal effect ([1]; 7 d, pelargonic acid 5440 g/ha): 97%
- herbicidal effect ([1]; 7 d, pelargonic acid 6800 g/ha): 19%
- herbicidal effect ([1]; 7 d, pelargonic acid 8160 g/ha): 68%
- herbicidal effect [1, 2]: 70%
- herbicidal effect [1, 3]: 25%
- herbicidal effect [1, 5]: 19%
- herbicidal effect [1, 6]: 38%
- herbicidal effect [1, 7]: 0%
- herbicidal effect [1, 8]: 0%
- herbicidal effect [1, 9]: 0%
- herbicidal effect [1, 10]: 31%
- herbicidal effect [1, 11]: 0%
- herbicidal effect [1, 12]: 0%
- herbicidal effect [1, 13]: 0%
- herbicidal effect (Plantago major; [14]): 20%
- herbicidal effect (Plantago major; [15]): 20%
- herbicidal effect (Plantago major; [16]): 50%
- herbicidal effect (Plantago major; [17]): 25%
- herbicidal effect (Plantago major; [18]): 25%
- herbicidal effect (Plantago major; [19]): 40%
- herbicidal effect (Plantago major; [20]): 40%
- herbicidal effect (Plantago major; [21]): 0%
- herbicidal effect (Plantago major; [22]): 0%
- herbicidal effect (Plantago major; [23]): 0%
- herbicidal effect (Plantago major; [24]): 0%
- herbicidal effect (Plantago major; [25]): 15%
- herbicidal effect (Plantago major; [26]): 15%
- herbicidal effect (Plantago major; [27]): 0%
- herbicidal effect (Plantago major; [28]): 0%
- herbicidal effect (Plantago major; [29]): 0%
- herbicidal effect (Plantago major; [30]): 0%
- herbicidal effect (Plantago major; [31]): 0%
- herbicidal effect (Plantago major; [32]): 0%
- herbicidal effect (Plantago major; [33]): 0%
- herbicidal effect (Plantago major; [34]): 0%
- herbicidal effect (Chenopodium album; [14]): 40%
- herbicidal effect (Chenopodium album; [15]): 40%
- herbicidal effect (Chenopodium album; 3 d, pelargonic acid 21760 g/ha, flazasulfuron 25 g/ha, 32 L/ha): 45%
- herbicidal effect (Chenopodium album; [16]): 45%
- herbicidal effect (Chenopodium album; [17]): 40%
- herbicidal effect (Chenopodium album; [18]): 40%
- herbicidal effect (Chenopodium album; [19]): 35%
- herbicidal effect (Chenopodium album; [20]): 35%
- herbicidal effect (Chenopodium album; [21]): 10%
- herbicidal effect (Chenopodium album; [22]): 10%
- herbicidal effect (Chenopodium album; [23]): 10%
- herbicidal effect (Chenopodium album; [24]): 10%
- herbicidal effect (Chenopodium album; 23 d, pelargonic acid 10880 g/ha, flazasulfuron 25 g/ha, 16 L/ha): 15%
- herbicidal effect (Chenopodium album; [25]): 40%
- herbicidal effect (Chenopodium album; [26]): 40%
- herbicidal effect (Chenopodium album; [27]): 0%
- herbicidal effect (Chenopodium album; [28]): 0%
- herbicidal effect (Chenopodium album; [29]): 0%
- herbicidal effect (Chenopodium album; [30]): 0%
- herbicidal effect (Chenopodium album; [31]): 15%
- herbicidal effect (Chenopodium album; [32]): 15%
- herbicidal effect (Chenopodium album; [33]): 30%
- herbicidal effect (Chenopodium album; [34]): 30%
- herbicidal effect (Anagallis arvensis): 13.8%
- herbicidal effect (Veronica persica; 3 d): 8.8%
- herbicidal effect (Veronica persica; 7 d): 20%
- herbicidal effect (Veronica persica; 56 d): 16.3%
- herbicidal effect (Erodium cicuta): 82.5%
- herbicidal effect (Convolvulus arvensis L.): 11.3%
